Data as given in patent publication US12304912B2, “Fused bicyclic RAF inhibitors and methods for use thereof” (Jazz Pharmaceuticals Ireland Limited, priority 2020, dated 2025).
≈ marks a conversion by molar mass, not a printed value. Read-outs that look alike come from different tables or passages of the source.

Tests used:
[1] = Microsomal stability assay, mouse liver microsomes (MLM); assay type: in vitro ADME; settings: 0.5 mg/mL protein, 1 μM substrate
Description: (§1) Microsomal Stability Assay
(§2) The stability studies were performed manually using the substrate depletion approach. Test compounds were incubated at 37° C. with cryo-preserved mouse or human liver microsomes (Corning) at a protein concentration of 0.5 mg·mL^−1 and a final substrate concentration of 1 μM. Aliquots were removed from the incubation at defined timepoints and the reaction was terminated by adding to ice-cold organic solvent. Compound concentrations were determined by LC-MS/MS analysis. The natural log of the percentage of compound remaining was plotted against each time point and the slope determined. The half-life (t1/2) and CLint were calculated using Equations 1 and 2, respectively.
(§3) HLM (human liver microsomes) and MLM (mouse liver microsomes) stability assay results are described in Tables 1-2.

[2] = Solubility (Sol), medium not stated; assay type: physicochemical; settings: cells not marked (FESSIF)
FeSSIF solubility assay = assay type: physicochemical; settings: fed state simulated intestinal fluid (FeSSIF), thermodynamic from solid, pH 5 acetate buffer, 37° C., read-out: FESSIF Sol
Description: FeSSIF Solubility Assay 1 mL of fed state simulated intestinal fluid (FeSSIF), prepared using FaSSIF/FeSSIF/FaSSGF powder (Biorelevant.com) and pH 5 acetate buffer, was added to 1.0 mg of compound and then incubated for 24 h (Bioshake iQ, 650 rpm, 37° C.). Following filtration under positive pressure, the concentration of compound in solution was assessed by LC-UV in comparison to the response for a calibration standard of known concentration (250 μM). FeSSIF solubility results are described in Tables 1-2.

[3] = system: constitutive ERK phosphorylation in HCT-116 cells; assay: HCT-116 AlphaLISA SureFire pERK1/2 cellular assay; assay type: cell-based, human; settings: Homo sapiens, read-out: pERK HCT116 (2 hr) Abs pIC50 (converted)
Description: HCT-116 AlphaLISA SureFire pERK1/2 Cellular Assay […] […] Assay read outs took place 2 or 24 hours after dosing with compounds. On the first day, HCT-116 cells were harvested, resuspended in growth medium (McCoys5A with Glutamax (Life Technologies 36600021) and 10% heat-inactivated fetal bovine serum (Sigma F9665)), and counted. Cells were plated in 100 μl per well in each well of a 96-well culture dish (Sigma CLS3598) to a final density of 30,000 (2 hr read) or 15,000 (24 hr read) cells per well and incubated over night at 37° C. and 5% CO2. On day 2, the growth medium was exchanged for dosing medium (McCoys5A with Glutamax (Life Technologies 36600021) and 1% heat-inactivated fetal bovine serum (Sigma F9665)) and the cells were dosed with compounds to produce a 10-point dose response, where the top concentration was 1 μM and subsequent concentrations were at 1/3 log dilution intervals. A matched DMSO control was included. The cells were subsequently incubated for either 2 or 24 hours at 37° C. and 5% CO2. After incubation, media was removed and the cells were incubated with lysis buffer containing phosphatase inhibitors for 15 minutes at room temperature. Cell lysates were transferred to a 12 area 96 well white Optiplate™ (Perkin Elmer 6005569) and incubated with anti-mouse IgG acceptor beads, a biotinylated anti-ERK1/2 rabbit antibody recognizing both phosphorylated and non-phosphorylated ERK1/2, a mouse antibody targeted to the Thr202/Tyr204 epitope and recognizing phosphorylated ERK proteins only, and streptavidin-coated donor beads. The biotinylated antibody binds to the streptavidin-coated donor beads and the phopsho-ERK1/2 antibody binds to the acceptor beads. […] Both antibodies bound to phosphorylated ERK proteins, bringing the donor and acceptor beads into close proximity. All data were analyzed using the Dotmatics or GraphPad Prism software packages. Inhibition of ERK phosphorylation was assessed by determination of the absolute IC50 value, which is defined as the concentration of compound required to decrease the level of phosphorylated ERK proteins by 50% when compared to DMSO control.

[4] = Plasma protein binding assay, mouse plasma (mPPB); assay type: in vitro ADME; settings: 5 μM, equilibrium dialysis 4 hours at 37° C.
Description: (§4) Plasma Protein Binding Assay The plasma protein binding was determined by the equilibrium dialysis method. A known concentration of compound (5 μM) in previously frozen human or mouse plasma (Sera Labs) was dialysed against phosphate buffer using a RED device (Life Technologies) for 4 hours at 37° C. The concentration of compound in the protein containing (PC) and protein free (PF) sides of the dialysis membrane were determined by LC-MS/MS and the % free compound was determined by equation 4. Data analysis was performed using Excel (Microsoft, USA). % free=(1−((PC−PF)/PC))×100 (4) hPPB (human plasma protein binding) and mPPB (mouse plasma protein binding) results are described in Tables 1-2.

[5] = Microsomal stability assay, human liver microsomes (HLM); assay type: in vitro ADME; settings: 0.5 mg/mL protein, 1 μM substrate, 37° C.
Description: as §1, §2, §3

[6] = Plasma protein binding assay, human plasma (hPPB); assay type: in vitro ADME; settings: 5 μM, equilibrium dialysis 4 hours at 37° C.
Description: as §4

[7] = HCT-116, HCT116 cells, 2 hr, Abs

microsomal CLint at 1 μM [1]	Sol [2]	solubility thermodynamic at 24 h (FeSSIF solubility assay)	IC50 [3, 7]	mPPB (% free) [4]	microsomal CLint at 1 μM ([1]; 37° C.)	microsomal CLint at 1 μM [5]	hPPB (% free) [6]	Compound	IC50 ([3]; HCT-116, 2 h)
15.4 µL/min/mg	<1.2 mg/L	–	–	–	–	–	–	O=C1CCc2c(Oc3ccc4c(c3)CC(c3cc(-c5ccc(Cl)cc5)n[nH]3)CO4)ccnc2N1 (stereo not drawn) [Compound 39]	–
23.2 µL/min/mg	<1.2 mg/L	–	–	–	–	–	–	COc1ccc(-c2cc(C3COc4ccc(Oc5ccnc6c5CCC(=O)N6)cc4C3)[nH]n2)cc1 (stereo not drawn) [Compound 43]	–
–	–	< 1.2 µg/mL	724 nM	0.9 % free	35.8 µL/min/mg	74.2 µL/min/mg	0.6 % free	O=C1CCc2c(Oc3ccc4c(c3)CC(c3nc(-c5ccnc(C6CC6)c5)c[nH]3)CO4)ccnc2N1 (stereo not drawn) [Compound 119, 5-[3-[4-(2-cyclopropyl-4-pyridyl)-1H-imidazol-2-yl]chroman-6-yl]oxy-3,4-dihydro-1H-1,8-naphthyridin-2-one]	–
–	–	1.3 µg/mL (≈ 2.7 µM)	955 nM	0.6 % free	89 µL/min/mg	190 µL/min/mg	0.9 % free	CC(C)c1cc(-c2c[nH]c(C3COc4ccc(Oc5ccnc6c5CCC(=O)N6)cc4C3)n2)ccn1 (stereo not drawn) [Compound 120, 5-[3-[4-(2-isopropyl-4-pyridyl)-1H-imidazol-2-yl]chroman-6-yl]oxy-3,4-dihydro-1H-1,8-naphthyridin-2-one]	–
–	–	38.2 µg/mL (≈ 77.1 µM)	> 1000 nM	0.4 % free	137 µL/min/mg	207 µL/min/mg	0.4 % free	CC(C)(C)c1cc(-c2c[nH]c(C3COc4ccc(Oc5ccnc6c5CCC(=O)N6)cc4C3)n2)ccn1 (stereo not drawn) [Compound 121, 5-[3-[4-(2-tert-butyl-4-pyridyl)-1H-imidazol-2-yl]chroman-6-yl]oxy-3,4-dihydro-1H-1,8-naphthyridin-2-one]	–
–	–	661 µg/mL (≈ 1440 µM)	> 1000 nM	–	–	–	–	CC(C)N1CCc2nc(C3COc4ccc(Oc5ccnc6c5CCC(=O)N6)cc4C3)[nH]c2C1 (stereo not drawn) [Compound 133, 5-[3-(5-isopropyl-3,4,6,7-tetrahydroimidazo[4,5-c]pyridin-2-yl)chroman-6-yl]oxy-3,4-dihydro-1H-1,8-naphthyridin-2-one]	–
–	–	135 µg/mL (≈ 309 µM)	> 1000 nM	–	–	–	–	c1ccc(-c2c[nH]c(C3COc4ccc(Oc5ccnc(NC6CCC6)c5)cc4C3)n2)cc1 (stereo not drawn) [Compound 142, N-cyclobutyl-4-[3-(4-phenyl-1H-imidazol-2-yl)chroman-6-yl]oxy-pyridin-2-amine]	–
–	–	< 1 µg/mL	> 1000 nM	0.5 % free	34.4 µL/min/mg	19.8 µL/min/mg	1.0 % free	O=C1CCc2c(Oc3ccc4c(c3)CN(c3nc5ccccc5[nH]3)CC4)ccnc2N1 [Compound 159, 5-[[2-(1H-benzimidazol-2-yl)-3,4-dihydro-1H-isoquinolin-7-yl]oxy]-3,4-dihydro-1H-1,8-naphthyridin-2-one]	–
–	–	< 1.1 µg/mL	562 nM	–	–	–	–	CCCc1ccc2[nH]c(N3CCc4ccc(Oc5ccnc6c5CCC(=O)N6)cc4C3)nc2c1 [Compound 161, 5-[[2-(5-propyl-1H-benzimidazol-2-yl)-3,4-dihydro-1H-isoquinolin-7-yl]oxy]-3,4-dihydro-1H-1,8-naphthyridin-2-one]	–
–	–	13.7 µg/mL (≈ 28.1 µM)	> 1000 nM	–	–	–	–	O=C1CCc2c(Oc3ccc4c(c3)CN(c3nc5cc(-c6ccccc6)ccc5[nH]3)CC4)ccnc2N1 [Compound 162, 5-[[2-(5-phenyl-1H-benzimidazol-2-yl)-3,4-dihydro-1H-isoquinolin-7-yl]oxy]-3,4-dihydro-1H-1,8-naphthyridin-2-one]	–
–	–	< 1.3 µg/mL	> 1000 nM	–	–	–	–	Cc1cc(-c2ccc3[nH]c(N4CCc5ccc(Oc6ccnc7c6CCC(=O)N7)cc5C4)nc3c2)n(C)n1 [Compound 163]	–

Compound	microsomal CLint at 1 μM [1]	Sol [2]	solubility thermodynamic at 24 h (FeSSIF solubility assay)	IC50 [3, 7]	mPPB (% free) [4]	microsomal CLint at 1 μM ([1]; 37° C.)	microsomal CLint at 1 μM [5]	hPPB (% free) [6]	IC50 ([3]; HCT-116, 2 h)
CC(=O)N1CCc2nc(C3COc4ccc(Oc5ccnc6c5CCC(=O)N6)cc4C3)[nH]c2C1 (stereo not drawn) [Compound 135, 5-[3-(5-acetyl-3,4,6,7-tetrahydroimidazo[4,5-c]pyridin-2-yl)chroman-6-yl]oxy-3,4-dihydro-1H-1,8-naphthyridin-2-one]	–	–	33.2 µg/mL (≈ 72.3 µM)	–	–	–	–	–	> 1000 nM
CC(C(=O)Nc1cc(Oc2ccc3c(c2)CC(c2nc(-c4ccccc4)c[nH]2)CO3)ccn1)N1CCOCC1 (stereo not drawn) [Compound 150, 2-morpholino-N-[4-[3-(4-phenyl-1H-imidazol-2-yl)chroman-6-yl]oxy-2-pyridyl]propanamide]	–	–	235 µg/mL (≈ 448 µM)	–	–	–	–	–	> 1000 nM
